Data taken from PubChem BioAssay AID248 (DTP/NCI, 2004).
Where “and” joins values, the source holds several entries; their conditions need not be identical. Equal values may be shown once. Toxic doses and inconclusive results are not listed.

Tested on: L1210 leukemia ip in BDF1 mice, survival T/C
Test: NCI In Vivo Anticancer Drug Screen. Data for tumor model L1210 Leukemia (intraperitoneal) in B6D2F1 (BDF1) mice
Details: endpoint: mean survival time, higher = longer survival
In short: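 Each compound was tested against a transplantable tumor grown in mice. The endpoint was survival, with treated animals benchmarked against vehicle controls as a simple ratio.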

[1] = dose: 100.0 mg/kg/injection, schedule: Q01DX009 (ip), vehicle: saline with Tween-80
[2] = dose: 200.0 mg/kg/injection, schedule: Q01DX009 (ip), vehicle: saline with Tween-80
[3] = dose: 100.0 mg/kg/injection, schedule: Q01DX001 (ip), vehicle: saline
[4] = dose: 200.0 mg/kg/injection, schedule: Q01DX001 (ip), vehicle: saline
[5] = dose: 400.0 mg/kg/injection, schedule: Q01DX001 (ip), vehicle: saline
[6] = dose: 100.0 mg/kg/injection, schedule: Q01DX001 (ip), vehicle: carboxymethylcellulose (CMC)
[7] = dose: 200.0 mg/kg/injection, schedule: Q01DX001 (ip), vehicle: carboxymethylcellulose (CMC)
[8] = dose: 100.0 mg/kg/injection, schedule: Q04DX003 (ip), vehicle: saline

C=CCOc1ccc(OCC=C)nn1
T/C (dose: 100.0 mg/kg/injection, schedule: Q04DX003 (ip), vehicle: Klucel (hydroxypropylcellulose) (HPC)): 104 % of control
T/C (dose: 200.0 mg/kg/injection, schedule: Q04DX003 (ip), vehicle: Klucel (hydroxypropylcellulose) (HPC)): 97 % of control
T/C (dose: 400.0 mg/kg/injection, schedule: Q04DX003 (ip), vehicle: Klucel (hydroxypropylcellulose) (HPC)): 101 % of control

CC(C)(C)c1ccc(OCC(=O)O)c(Cl)c1
T/C [1]: 91 % of control
T/C [2]: 101 % of control

COc1cccc2c1C(=O)c1c(O)c3c(c(O)c1C2=O)C[C@@](O)(C(=O)COC(=O)c1cccnc1)C[C@@H]3OC1CC(N)C(O)C(C)O1 (some centres undefined)
T/C (dose: 1.6 mg/kg/injection, schedule: Q01DX009 (ip), vehicle: saline): 153 % of control
T/C (dose: 2.4 mg/kg/injection, schedule: Q01DX009 (ip), vehicle: saline): 153 % of control

CCN(CC)c1ccc(/C=N\NC(=O)CCCC(=O)N/N=C/c2ccc(N(CC)CC)cc2)cc1
T/C (dose: 50.0 mg/kg/injection, schedule: Q01DX001 (ip), vehicle: saline): 102 % of control
T/C [3]: 100 % of control
T/C [4]: 96 % of control
T/C [5]: 100 % of control

CCCC[P+](CCCC)(CCCC)CCCC
T/C (dose: 5.0 mg/kg/injection, schedule: Q01DX001 (ip), vehicle: saline): 102 % of control
T/C (dose: 6.25 mg/kg/injection, schedule: Q04DX002 (ip), vehicle: Klucel (hydroxypropylcellulose) (HPC)): 89 % of control
T/C (dose: 10.0 mg/kg/injection, schedule: Q01DX001 (ip), vehicle: saline): 123 % of control
T/C (dose: 12.5 mg/kg/injection, schedule: Q04DX002 (ip), vehicle: Klucel (hydroxypropylcellulose) (HPC)): 103 % of control
T/C (dose: 20.0 mg/kg/injection, schedule: Q01DX001 (ip), vehicle: saline): 104 % of control
T/C (dose: 25.0 mg/kg/injection, schedule: Q04DX002 (ip), vehicle: Klucel (hydroxypropylcellulose) (HPC)): 95 % of control and 104 % of control

Cc1nccc2c(C)c3c(cc12)c1ccccc1n3CC1CO1 (centres undefined)
T/C (dose: 4.69 mg/kg/injection, schedule: Q01DX009 (ip), vehicle: saline with Tween-80): 119 % of control
T/C (dose: 9.37 mg/kg/injection, schedule: Q04DX003 (ip), vehicle: saline with Tween-80): 113 % of control
T/C (dose: 18.75 mg/kg/injection, schedule: Q01DX009 (ip), vehicle: saline with Tween-80): 124 % of control
T/C (dose: 18.75 mg/kg/injection, schedule: Q04DX003 (ip), vehicle: saline with Tween-80): 119 % of control
T/C (dose: 37.5 mg/kg/injection, schedule: Q01DX009 (ip), vehicle: saline with Tween-80): 103 % of control
T/C (dose: 37.5 mg/kg/injection, schedule: Q04DX003 (ip), vehicle: saline with Tween-80): 122 % of control
T/C (dose: 75.0 mg/kg/injection, schedule: Q01DX009 (ip), vehicle: saline with Tween-80): 92 % of control
T/C (dose: 150.0 mg/kg/injection, schedule: Q04DX003 (ip), vehicle: saline with Tween-80): 115 % of control

C/C(=N\N=C(N)N)c1ccc(N2CCN(c3ccc(/C(C)=N/N=C(N)N)cc3)CC2)cc1
T/C [6]: 94 % of control
T/C [7]: 97 % of control
T/C (dose: 400.0 mg/kg/injection, schedule: Q01DX001 (ip), vehicle: carboxymethylcellulose (CMC)): 100 % of control

Oc1ccc(Cl)cc1Sc1cc(Cl)ccc1O
T/C (dose: 25.0 mg/kg/injection, schedule: Q04DX003 (ip), vehicle: other): 103 % of control
T/C (dose: 50.0 mg/kg/injection, schedule: Q01DX009 (ip), vehicle: other): 95 % of control
T/C (dose: 50.0 mg/kg/injection, schedule: Q04DX003 (ip), vehicle: other): 97 % of control
T/C (dose: 100.0 mg/kg/injection, schedule: Q01DX009 (ip), vehicle: other): 111 % of control
T/C (dose: 100.0 mg/kg/injection, schedule: Q04DX003 (ip), vehicle: other): 92 % of control
T/C [8]: 86 % of control
T/C (dose: 200.0 mg/kg/injection, schedule: Q01DX009 (ip), vehicle: other): 95 % of control

Nc1cc(C(=O)Nc2ccc(CCNC3=NCCN3)cc2)ccc1C(=O)Nc1ccc(CCNC2=NCCN2)cc1
T/C (dose: 0.26 mg/kg/injection, schedule: Q01DX001 (ip), vehicle: water): 103 % of control
T/C (dose: 0.4 mg/kg/injection, schedule: Q01DX001 (ip), vehicle: water): 101 % of control
T/C (dose: 0.6 mg/kg/injection, schedule: Q01DX001 (ip), vehicle: water): 103 % of control
T/C (dose: 0.93 mg/kg/injection, schedule: Q01DX001 (ip), vehicle: water): 101 % of control
T/C (dose: 0.93 mg/kg/injection, schedule: Q01DX015 (ip), vehicle: water): 101 % of control
T/C (dose: 1.87 mg/kg/injection, schedule: Q01DX015 (ip), vehicle: water): 119 % of control
T/C (dose: 3.75 mg/kg/injection, schedule: Q01DX015 (ip), vehicle: water): 156 % of control
T/C (dose: 4.8 mg/kg/injection, schedule: Q01DX Z (oral), vehicle: water): 109 % of control
T/C (dose: 7.5 mg/kg/injection, schedule: Q01DX015 (ip), vehicle: water): 216 % of control
T/C (dose: 7.5 mg/kg/injection, schedule: Q01DX Z (ip), vehicle: water): 265 % of control
T/C (dose: 7.5 mg/kg/injection, schedule: Q01DX Z (oral), vehicle: water): 113 % of control
T/C (dose: 11.0 mg/kg/injection, schedule: Q01DX Z (oral), vehicle: water): 111 % of control
T/C (dose: 15.0 mg/kg/injection, schedule: Q01DX015 (ip), vehicle: water): 97 % of control
T/C (dose: 16.0 mg/kg/injection, schedule: Q01DX Z (oral), vehicle: water): 104 % of control and 119 % of control
T/C (dose: 23.0 mg/kg/injection, schedule: Q01DX Z (oral), vehicle: water): 104 % of control
T/C (dose: 35.0 mg/kg/injection, schedule: Q01DX Z (oral), vehicle: water): 102 % of control
T/C (dose: 55.0 mg/kg/injection, schedule: Q01DX Z (oral), vehicle: water): 99 % of control and 115 % of control
T/C (dose: 85.0 mg/kg/injection, schedule: Q01DX Z (oral), vehicle: water): 114 % of control
T/C (dose: 125.0 mg/kg/injection, schedule: Q01DX Z (oral), vehicle: water): 118 % of control
T/C (dose: 190.0 mg/kg/injection, schedule: Q01DX Z (oral), vehicle: water): 104 % of control and 113 % of control

O=C1OCCC12CCCCC21OCCO1 (centres undefined)
T/C [3]: 101 % of control
T/C [4]: 104 % of control
T/C [5]: 98 % of control

O=C1NC(CCO)C(=O)NC1CCO (centres undefined)
T/C (dose: 50.0 mg/kg/injection, schedule: Q01DX009 (ip), vehicle: saline): 97 % of control
T/C [3]: 100 % of control
T/C (dose: 100.0 mg/kg/injection, schedule: Q01DX009 (ip), vehicle: saline): 112 % of control
T/C [4]: 97 % of control
T/C (dose: 200.0 mg/kg/injection, schedule: Q01DX009 (ip), vehicle: saline): 104 % of control
T/C [5]: 100 % of control

CCNc1ncnc2c1cnn2C
T/C [3]: 95 % of control
T/C [4]: 103 % of control
T/C [5]: 114 % of control

CCOC(=O)C(CCC#N)C1=NC(C)(C)CC(C)O1 (centres undefined)
T/C (dose: 100.0 mg/kg/injection, schedule: Q01DX001 (ip), vehicle: Klucel (hydroxypropylcellulose) (HPC)): 97 % of control
T/C (dose: 200.0 mg/kg/injection, schedule: Q01DX001 (ip), vehicle: Klucel (hydroxypropylcellulose) (HPC)): 101 % of control
T/C (dose: 400.0 mg/kg/injection, schedule: Q01DX001 (ip), vehicle: Klucel (hydroxypropylcellulose) (HPC)): 103 % of control

CCC1(CCCCCBr)OCCO1
T/C (dose: 100.0 mg/kg/injection, schedule: Q04DX002 (ip), vehicle: Klucel (hydroxypropylcellulose) (HPC)): 101 % of control
T/C (dose: 200.0 mg/kg/injection, schedule: Q04DX002 (ip), vehicle: Klucel (hydroxypropylcellulose) (HPC)): 108 % of control
T/C (dose: 400.0 mg/kg/injection, schedule: Q04DX002 (ip), vehicle: Klucel (hydroxypropylcellulose) (HPC)): 104 % of control

NC1=NC(=O)CS1
T/C (dose: 100.0 mg/kg/injection, schedule: Q01DX001 (ip), vehicle: saline with Tween-80): 92 % of control
T/C [1]: 105 % of control
T/C [8]: 86 % of control
T/C (dose: 200.0 mg/kg/injection, schedule: Q01DX001 (ip), vehicle: saline with Tween-80): 103 % of control
T/C [2]: 107 % of control
T/C (dose: 200.0 mg/kg/injection, schedule: Q04DX003 (ip), vehicle: saline): 93 % of control
T/C (dose: 400.0 mg/kg/injection, schedule: Q01DX001 (ip), vehicle: saline with Tween-80): 95 % of control
T/C (dose: 400.0 mg/kg/injection, schedule: Q01DX009 (ip), vehicle: saline with Tween-80): 105 % of control
T/C (dose: 400.0 mg/kg/injection, schedule: Q04DX003 (ip), vehicle: saline): 86 % of control

ClCCCNCc1ccc(-c2c3ccccc3cc3c2ccc2ccccc23)cc1
T/C [6]: 95 % of control
T/C [7]: 101 % of control
